{
  "source": "patent US6342360B1",
  "about": "(priority 1988, dated 2002)",
  "key": {"[1]": {"target": "T1, dopamine-D2 receptor (Rattus norvegicus, UniProt P61169)", "T1 sequence (P61169 1-415 isoform P61169-2)": "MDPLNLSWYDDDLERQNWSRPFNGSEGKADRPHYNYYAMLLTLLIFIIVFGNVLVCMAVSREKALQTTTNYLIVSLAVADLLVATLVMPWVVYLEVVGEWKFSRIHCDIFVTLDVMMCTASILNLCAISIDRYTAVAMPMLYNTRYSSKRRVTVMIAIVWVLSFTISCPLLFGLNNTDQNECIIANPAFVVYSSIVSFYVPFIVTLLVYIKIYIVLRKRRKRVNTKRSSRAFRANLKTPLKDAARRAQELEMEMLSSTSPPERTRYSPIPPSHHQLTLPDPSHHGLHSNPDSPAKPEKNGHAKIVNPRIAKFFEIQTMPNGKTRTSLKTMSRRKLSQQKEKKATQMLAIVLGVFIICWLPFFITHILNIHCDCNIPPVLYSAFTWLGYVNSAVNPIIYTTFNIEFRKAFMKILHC", "assay": "Acute PRL release in GH4ZR7 cells", "format": "cell-based", "parameters": "Full-length dopamine-D2 cDNA (17) was excised from λGT10 with Sal I; expressed in transfected cells", "conditions": "30 min", "procedure": "(§1) cAMP and PRL Assay: Cells were plated in 6-well, 35 mm dishes, 3-7 days prior to experimentation. Cells were pre-incubated in 2 ml/well warm F10+0.1% (−)-ascorbic acid+20 mM Tris (pH 7.2) (FAT) for 5-10 min, followed by addition of 1 ml/well of FAT+100 μm IBMX+experimental compounds, and incubated for 30 min. at 37° C. Experimental compounds were diluted 200- to 1000-fold from stock solutions made immediately prior to assay. […] Media were collected, and the cells were lysed immediately in 1 ml of boiling water. Cell lysates and media were centrifuged (2000×g, 10 min., 4° C.), and the supernatants collected for assay as cell extracts. Cell extracts and media samples were frozen at −20° C. until assay, if not assayed immediately. cAMP was assayed by a specific radioimmunoassay as described (22), with antibody used at 1:500 dilution. After 16 h incubation at 4° C., 20 μl of 10% BSA and 1 ml of 95% ethanol were added consecutively to precipitate the antibody-antigen complex. […] PRL was assayed in the media samples obtained as described above, except that IBMX was omitted during the 30 min incubation in FAT medium. PRL levels were determined by specific radioimmunoassay using Staphyloccus A lysate (IgSorb, The Enzyme Center, Malden, Mass.) to precipitate antigen-antibody complexes (23)."}, "[2]": {"target": "T1, dopamine-D2 receptor", "assay": "cAMP accumulation in GH4ZR7 cells", "procedure": "as §1"}, "[3]": {"target": "T1, dopamine-D2 receptor", "assay": "Adenylate cyclase activity in membranes from GH4ZR7 cells", "format": "biochemical", "parameters": "Full-length dopamine-D2 cDNA (17) was excised from λGT10 with Sal I; expressed in transfected cells", "conditions": "for efficacy: forskolin-stimulated adenylate cyclase", "procedure": "Adenylate Cyclase Assay: The conversion of α^32P-ATP to ^32P-cAMP was determined essentially as described by Salomon et al. (24). […] Assays carried out in triplicate were initiated by warming to 25° C. and terminated by cooling to 0° C. Trichloroacetic acid (100 μl of 30% solution) was added to each assay, and ^3H-cAMP (30,000 cpm) was added to each tube as an internal standard. The assay volume was increased to 1 ml by addition of water, and tubes were centrifuged (2000 g×10 min). cAMP in the supernatant was isolated by sequential chromatography on columns containing Dowex AG50W-X4 resin and neutral alumina. The 2-ml eluate from each alumina columntwas dissolved in 10 ml of Bio-Safe II (RPI, Mount Prospect, Ill.) for liquid scintillation counting. Calculations: Data from cAMP and PRL assays are expressed as means±standard error for triplicate determinations. Curve-fitting parameters were obtained by nonlinear regression analysis using the Enzfitter program (Elsevier Biosoft). Average affinity, EC50 and IC50 values are geometric means of the indicated number of experiments. In competition experiments, KI values were calculated from experimentally determined IC50 values by the method of Cheng and Prusoff (25)."}, "[4]": {"tested_on": "D2 dopamine receptors in rat striatal membranes", "assay": "3H-spiperone binding to rat striatal membranes", "conditions": "at the concentrations used", "procedure": "(§2) The homogenizing solution was centrifuged at 800×g for 10 min. and the pellet was subjected to a second homogenization and centrifugation as before. The supernatants were pooled and centrifuged at 200,000×g for 1 hour. […] In some experiments 100 uM guanosine 5′-triphosphate was included. […] Incubations were initiated by the addition of 15-40 μg of protein, carried out at 37° C. for 50 minutes, and stopped by the addition of 10 ml of ice-cold wash buffer (10 mM Tris, pH=7.4, and 0.9% NaCl) to each assay. The samples were filtered through glass-fiber filters (Schleicher and Schuell No. 30) and washed with an additional 10 ml of wash buffer. The radioactivity retained on the filter was counted using a Beckman LS 1701 scintillation counter. Data were analyzed as previously described (29) except that curves were drawn using the data analysis program Enzfitter. The resulting IC50 values were converted to Ki values by the method of Cheng and Prusoff (30)."}, "[5]": {"target": "human dopamine D2 receptor (Homo sapiens, UniProt P14416)", "sequence (P14416 whole entry)": "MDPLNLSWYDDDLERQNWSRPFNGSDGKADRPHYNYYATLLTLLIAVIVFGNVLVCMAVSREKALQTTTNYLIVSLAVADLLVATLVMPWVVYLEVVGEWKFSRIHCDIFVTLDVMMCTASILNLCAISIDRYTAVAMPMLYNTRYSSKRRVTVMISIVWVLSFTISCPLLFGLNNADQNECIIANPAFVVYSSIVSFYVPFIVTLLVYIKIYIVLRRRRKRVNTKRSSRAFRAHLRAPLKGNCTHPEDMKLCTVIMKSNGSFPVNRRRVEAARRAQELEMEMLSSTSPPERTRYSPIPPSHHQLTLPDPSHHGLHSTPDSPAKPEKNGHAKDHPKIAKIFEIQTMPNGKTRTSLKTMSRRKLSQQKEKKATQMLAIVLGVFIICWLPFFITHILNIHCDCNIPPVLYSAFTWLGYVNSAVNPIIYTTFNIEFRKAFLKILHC", "assay": "[3H]-domperidone binding to L-hPitD2Zem membranes", "procedure": "The 2.5-kb human pituitary cDNA (hPitD2) was cloned into pZem3 (a gift from Dr. E. Mulvihill, Zymogenetics) and co-transfected with the pRSVneo gene into mouse Ltk^− cells by CaPo4 precipitation (10). A stable transfectant (L-hPitD2Zem) was selected and maintained in 750 μg/ml of G418 (Geneticin sulphate, Gibco). Twenty hours prior to the harvesting of membranes, these cells were incubated with 70 μM zinc sulphate. […] For the binding assays, membrane protein was used at 10-15 μg from L-hPitD2Zem, 50-75 μg from L-RGB2Zem-1, and 220-250 μg from rat striatum. […] The filters were washed twice in ice cold 50 mM Tris-HCl, pH 7.4. […] The Bmax, Kd, and IC50 values were determined as previously described (14)."}, "[6]": {"target": "rat D2 dopamine receptor (Rattus norvegicus, UniProt P61169)", "sequence (P61169 1-415 isoform P61169-2)": "as the sequence (P61169 1-415 isoform P61169-2) above", "procedure": "as §2"}, "[7]": {"target": "T2, rat dopamine D-2 receptor (Rattus norvegicus, UniProt P61169)", "T2 sequence (P61169 1-415 isoform P61169-2)": "as above", "conditions": "for blockade of inhibition of adenylate cyclase by 10 μM DA: 10 μM (+)-butaclamol in assay, pertussis toxin 50 ng/ml 16 hours on cells", "procedure": "Adenylate cyclase assay: The conversion of [α^32P]ATP to [^32P]cAMP was determined essentially as described by Salomon et al. (14). […] Assays were initiated by warming to 25° and terminated after 20 minutes by cooling to 0°, then adding trichloroacetic acid (100 μl of a 30% solution) to each assay. [^3H]Cyclic AMP (approximately 30,000 cpm) was added to each assay as an internal standard. The assay volume was brought up to 1 ml with water, and tubes were centrifuged for 10 min. at 2000×g. Cyclic AMP in the supernatant was isolated by sequential chromatography on columns containing Dowex AG50W-X4 resin and neutral alumina. The 2-ml eluate from each column of alumina was dissolved in 10 ml of Bio-Safe II (RPI, Mount Prospect, Ill.) for liquid scintillation counting. Dose-response curves for inhibition of adenylate cyclase activity by agonists were analyzed by nonlinear regression using the program Enzfitter. The data were fit to the equation:\nwhere E is the amount of enzyme activity, expressed as percentage of total stimulated activity, A is the concentration of agonists, EC50 is the concentration of agonist causing half-maximal inhibition of enzyme activity, Emax is the enzyme activity observed in the presence of maximally inhibiting concentrations of agonist, expressed as the percentage of total stimulated activity, and N is a slope factor. Averages of EC50 values are the geometric means."}, "[8]": {"tested_on": "GH4C1 cells", "procedure": "as §1"}, "[9]": {"target": "T2, rat dopamine D-2 receptor", "procedure": "Receptor binding assay: The membrane preparation was thawed, centrifuged at 24,000×g for 20 min., and resuspended in Tris-isosaline except where indicated. […] Assays were carried out in duplicate in a volume of 2 ml for saturation analyses or 1 ml for inhibition analyses. Incubations were initiated by the addition of 15-50 μg of protein, carried out at 37° for 50 min., and stopped by the addition of 10 ml of ice-cold wash buffer (10 mM Tris, pH 7.4, and 0.9% NaCl) to each assay. The samples were filtered through glass-fibre filters (Schleicher & Schuell No. 30) and washed with an additional 10 ml of wash buffer. […] Data were analyzed by nonlinear regression using the data analysis program Enzfitter (Elsevier-Biosoft). […] Averages for KI and KD values are the geometric means. In experiments designed to assess the effect of GTP and NaCl on the binding of DA, fresh tissue was used. Cells were harvested, centrifuged, and Mg^2+ resuspended in Tris-Mg^2+ (50 mM Tris, pH 7.4, and 4 mM MgCl2). Tissue was incubated for 15 min. at 37° in this buffer before re-centrifugation."}},
  "note": "Values joined by “and” are separate entries in the source; they are usually repeats but may differ in a detail not shown here. Identical values can stand only once. “Also recorded” adds a separate entry of the source. Like-named read-outs stand apart in the source and are kept apart here.",
  "data": [
    {"compound": "VIP: vasoactive intestinal peptide", "values": [
      {"measurement": "enhancement of PRL secretion", "setting": "[1]", "value": 1.5, "unit": "fold"},
      {"measurement": "VIP-induced enhancement of cAMP levels", "setting": "[2]", "value": "8-12 times basal levels"},
      {"measurement": "total adenylate cyclase activity stimulated", "setting": "[3]; 200 nM VIP, n=3", "value": "22±7", "unit": "pmol/mg protein/min"}
    ]},
    {"compound": "CCN1CCCC1CNC(=O)c1cc(S(N)(=O)=O)ccc1OC", "note": "(centres unmarked) [sulpiride]", "values": [
      {"measurement": "share of (+)-butaclamol-displaceable binding not inhibited", "setting": "[4]", "value": "10-15%"}
    ]},
    {"compound": "CN1CCN2c3ccccc3Cc3ccccc3C2C1", "note": "(centres unmarked) [mianserin]", "values": [
      {"measurement": "inhibition of domperidone binding", "setting": "[5]; [3H]-domperidone 1 nM", "value": "only at very high concentrations"}
    ]},
    {"compound": "(+)-butaclamol", "values": [
      {"measurement": "potency at inhibiting 3H-spiperone binding", "setting": "[6]", "value": "most potent inhibitors"},
      {"measurement": "blockade of inhibition of adenylate cyclase by 10 μM DA", "setting": "[7]", "value": "prevented"}
    ]},
    {"compound": "CCN1CCCC1CNC(=O)c1cc(S(N)(=O)=O)ccc1OC", "note": "(single isomer, unassigned; (+)) [(+)-sulpiride]", "values": [
      {"measurement": "blockade of dopamine inhibition of cAMP accumulation", "setting": "[2]", "value": "did not block; also recorded: little or no effect"}
    ]},
    {"compound": "NCCc1ccc(O)c(O)c1", "note": "[dopamine]", "values": [
      {"measurement": "effect on basal, VIP-stimulated or TRH-stimulated PRL secretion", "setting": "[8]; GH4C1 cells, data not shown", "value": "no effect"},
      {"measurement": "effect on extracellular cAMP levels", "setting": "[8]; wild-type GH4C1 cells, VIP omitted or present", "value": "no effect"}
    ]},
    {"compound": "CCCN1CCCC(c2cccc(O)c2)C1", "note": "(single isomer, unassigned; (+)) [(+)3-PPP, 3-(3-hydroxyphenyl)-N-n-propylpiperidine]", "values": [
      {"measurement": "efficacy", "setting": "[3]", "value": "as efficacious as dopamine"}
    ]},
    {"compound": "O=C(CCCN1CCC2(CC1)C(=O)NCN2c1ccccc1)c1ccc(F)cc1", "note": "[spiperone]", "values": [
      {"measurement": "blockade of dopamine inhibition of cAMP accumulation", "setting": "[2]", "value": "blocked dopamine action"},
      {"measurement": "effect of antagonist alone on basal cAMP", "setting": "[2]", "value": "did not alter basal cAMP levels"}
    ]},
    {"compound": "CCCN1CCCC(c2cccc(O)c2)C1", "note": "(single isomer, unassigned; (-)) [(−)3-PPP, 3-(3-hydroxyphenyl)-N-n-propylpiperidine]", "values": [
      {"measurement": "efficacy", "setting": "[3]", "value": "did not consistently reduce"},
      {"measurement": "Hill coefficient", "setting": "[9]; single experiment FIG. 9A", "value": 0.89}
    ]},
    {"compound": "pertussis toxin", "values": [
      {"measurement": "effect of pretreatment on inhibition of basal and VIP-stimulated cAMP by dopamine", "setting": "[2]; pertussis toxin 50 ng/ml, 16 h", "value": "abolished"},
      {"measurement": "blockade of inhibition of adenylate cyclase by 10 μM DA", "setting": "[7]", "value": "blocked"},
      {"measurement": "forskolin-stimulated adenylate cyclase activity versus control membranes", "setting": "[7]; membranes from pertussis toxin-treated cells", "value": "approximately 2.5 fold"},
      {"measurement": "effect of pretreatment on dopamine inhibition of forskolin-stimulated adenylate cyclase", "setting": "[3]; pertussis toxin 16 h", "value": "uncoupled"}
    ]},
    {"compound": "(−)-butaclamol", "values": [
      {"measurement": "inhibition of domperidone binding", "setting": "[5]", "value": "only at very high concentrations"}
    ]},
    {"compound": "O=C(c1ccc(F)cc1)C1CCN(CCn2c(=O)[nH]c3ccccc3c2=O)CC1", "note": "[ketanserin]", "values": [
      {"measurement": "potency at inhibiting 3H-spiperone binding", "setting": "[6]; L-RGB2Zem-1 membranes", "value": "much less potent"}
    ]},
    {"compound": "CC(C)C[C@H]1C(=O)N2CCC[C@H]2[C@]2(O)O[C@](NC(=O)[C@@H]3C=C4c5cccc6[nH]c(Br)c(c56)C[C@H]4N(C)C3)(C(C)C)C(=O)N12", "note": "[bromocriptine]", "values": [
      {"measurement": "EC50", "setting": "[7]", "value": "45 nM and 40 nM"},
      {"measurement": "Max (maximal inhibition of adenylate cyclase activity)", "setting": "[7]", "value": "17 ± 1", "unit": "%"},
      {"measurement": "agonist activity / efficacy", "setting": "[7]", "value": "less efficacious than DA"},
      {"measurement": "inhibition of forskolin-stimulated adenylate cyclase activity", "setting": "[3]", "value": 23, "unit": "%"},
      {"measurement": "maximal inhibition", "setting": "[3]", "value": 23, "unit": "%"},
      {"measurement": "EC50", "setting": "[3]; read-out: EC50", "value": 6, "unit": "nM"},
      {"measurement": "EC50", "setting": "[3]; read-out: EC50, inhibition of adenylate cyclase", "value": 5, "unit": "nM"},
      {"measurement": "Ki", "setting": "[9]; [3H]spiroperidol 0.2 nM, GTP and NaCl present, geometric mean of 2 experiments", "value": 2.4, "unit": "nM"},
      {"measurement": "rank among the six compounds tested", "setting": "[9]; inhibition of radioligand binding, LZR1", "value": "most potent"},
      {"measurement": "Ki", "setting": "[9]; read-out: KI for inhibition of [3H]spiroperidol binding, single experiment FIG. 9A, radioligand 230 pM", "value": 5, "unit": "nM"},
      {"measurement": "Ki", "setting": "[9]; read-out: mean KI, 0.1 mM GTP and 120 mM NaCl, LZR1 membranes", "value": 2, "unit": "nM"},
      {"measurement": "Hill coefficient", "setting": "[9]; single experiment FIG. 9A", "value": 1.05}
    ]},
    {"compound": "CCN1CCC[C@H]1CNC(=O)c1cc(S(N)(=O)=O)ccc1OC", "note": "[(−)-sulpiride]", "values": [
      {"measurement": "blockade of dopamine inhibition of cAMP accumulation", "setting": "[2]", "value": "blocked dopamine action"},
      {"measurement": "effect of antagonist alone on basal cAMP", "setting": "[2]; absence of dopamine", "value": "did not alter basal cAMP levels"}
    ]}
  ]
}
